Assay results reported in ChEMBL document CHEMBL3046381, “Synthesis and Fungicidal Activity of New Six-membered Cyclic Phosphates” (1995).

Key:
Assay type in all cases: functional
Pythium [1] = assay: Growth inhibition of Pythium sp. at 1000 ppm by agar dilution method; settings: read-out: GI
Pythium [2] = assay: Growth inhibition of Pythium sp. at 100 ppm by agar dilution method; settings: read-out: GI
Athelia rolfsii [3] = assay: Growth inhibition of Athelia rolfsii at 1000 ppm by agar dilution method; settings: Agroathelia rolfsii; read-out: GI
Athelia rolfsii [4] = assay: Growth inhibition of Athelia rolfsii at 100 ppm by agar dilution method; settings: Agroathelia rolfsii; read-out: GI
Pythium [5] = assay: Growth inhibition of Pythium sp. at 50 ppm by agar dilution method; settings: read-out: GI
Athelia rolfsii [6] = assay: Growth inhibition of Athelia rolfsii at 50 ppm by agar dilution method; settings: Agroathelia rolfsii; read-out: GI
Athelia rolfsii [7] = assay: Growth inhibition of Athelia rolfsii at 10 ppm by agar dilution method; settings: Agroathelia rolfsii; read-out: GI
Pythium [8] = assay: Growth inhibition of Pythium sp. at 10 ppm by agar dilution method; settings: read-out: GI

Compound: CC(C)c1ccc2c(c1)COP(=S)(OCCc1ccccc1)O2 (stereo not given)
- inhibition of growth at 1000 ppm (Pythium [1]): 100%
- inhibition of growth at 100 ppm (Pythium [2]): 74.6%
- inhibition of growth at 1000 ppm (Athelia rolfsii [3]): 100%
- inhibition of growth at 100 ppm (Athelia rolfsii [4]): 30.6%

Compound: CC(C)=CCCC(C)CCOP1(=S)OCc2ccccc2O1 (stereo not given)
- inhibition of growth at 1000 ppm (Pythium [1]): 96%
- inhibition of growth at 100 ppm (Pythium [2]): 38.8%
- inhibition of growth at 1000 ppm (Athelia rolfsii [3]): 100%
- inhibition of growth at 100 ppm (Athelia rolfsii [4]): 36.6%

Compound: C=CCc1ccc(OP2(=S)OCc3cc(C(C)C)ccc3O2)c(OC)c1 (stereo not given)
- inhibition of growth at 1000 ppm (Pythium [1]): 83.9%
- inhibition of growth at 100 ppm (Pythium [2]): 22.9%
- inhibition of growth at 1000 ppm (Athelia rolfsii [3]): 71.2%
- inhibition of growth at 100 ppm (Athelia rolfsii [4]): 18.8%

Compound: Cc1ccc(OP2(=S)OCc3ccccc3O2)c(C(C)C)c1 (stereo not given)
- inhibition of growth at 1000 ppm (Pythium [1]): 80.8%
- inhibition of growth at 100 ppm (Pythium [2]): 0%
- inhibition of growth at 1000 ppm (Athelia rolfsii [3]): 83.3%
- inhibition of growth at 100 ppm (Athelia rolfsii [4]): 37.3%

Compound: Cc1ccc(C(C)C)c(OP2(=S)OCc3ccccc3O2)c1 (stereo not given)
- inhibition of growth at 1000 ppm (Pythium [1]): 100%
- inhibition of growth at 100 ppm (Pythium [2]): 45.2%
- inhibition of growth at 1000 ppm (Athelia rolfsii [3]): 99.8%
- inhibition of growth at 100 ppm (Athelia rolfsii [4]): 27.7%

Compound: Cc1ccc(C(C)C)c(OP2(=S)OCc3ccccc3O2)c1Cl (stereo not given)
- inhibition of growth at 1000 ppm (Pythium [1]): 97.4%
- inhibition of growth at 100 ppm (Pythium [2]): 27.9%
- inhibition of growth at 1000 ppm (Athelia rolfsii [3]): 85.5%
- inhibition of growth at 100 ppm (Athelia rolfsii [4]): 12.3%

Compound: C=CCc1ccc(OP2(=S)OCc3ccccc3O2)c(OC)c1 (stereo not given)
- inhibition of growth at 1000 ppm (Pythium [1]): 87.4%
- inhibition of growth at 100 ppm (Pythium [2]): 28.6%
- inhibition of growth at 1000 ppm (Athelia rolfsii [3]): 100%
- inhibition of growth at 100 ppm (Athelia rolfsii [4]): 25.5%

Compound: O=P1(Oc2ccccc2)OCc2ccccc2O1 (stereo not given)
- inhibition of growth at 1000 ppm (Pythium [1]): 100%
- inhibition of growth at 100 ppm (Pythium [2]): 76%
- inhibition of growth at 1000 ppm (Athelia rolfsii [3]): 88.7%
- inhibition of growth at 100 ppm (Athelia rolfsii [4]): 2.1%

Compound: S=P1(OCCc2ccccc2)OCc2ccccc2O1 (stereo not given)
- inhibition of growth at 1000 ppm (Pythium [1]): 100%
- inhibition of growth at 100 ppm (Pythium [2]): 70.1%
- inhibition of growth at 1000 ppm (Athelia rolfsii [3]): 100%
- inhibition of growth at 100 ppm (Athelia rolfsii [4]): 81.6%

Compound: CCCCCCCOP1(=S)OCc2ccccc2O1 (stereo not given)
- inhibition of growth at 1000 ppm (Pythium [1]): 100%
- inhibition of growth at 100 ppm (Pythium [2]): 42.4%
- inhibition of growth at 1000 ppm (Athelia rolfsii [3]): 100%
- inhibition of growth at 100 ppm (Athelia rolfsii [4]): 52.6%

Compound: CCCCCCCCCCCOP1(=S)OCc2ccccc2O1 (stereo not given)
- inhibition of growth at 1000 ppm (Pythium [1]): 100%
- inhibition of growth at 100 ppm (Pythium [2]): 0%
- inhibition of growth at 1000 ppm (Athelia rolfsii [3]): 88.1%
- inhibition of growth at 100 ppm (Athelia rolfsii [4]): 25%

Compound: CCCCCCCCCCCCCOP1(=S)OCc2ccccc2O1 (stereo not given)
- inhibition of growth at 1000 ppm (Pythium [1]): 100%
- inhibition of growth at 100 ppm (Pythium [2]): 6.3%
- inhibition of growth at 1000 ppm (Athelia rolfsii [3]): 100%
- inhibition of growth at 100 ppm (Athelia rolfsii [4]): 3.1%

Compound: CCCCCCCCCCCCCCCOP1(=S)OCc2ccccc2O1 (stereo not given)
- inhibition of growth at 1000 ppm (Pythium [1]): 86%
- inhibition of growth at 100 ppm (Pythium [2]): 24.9%
- inhibition of growth at 1000 ppm (Athelia rolfsii [3]): 32.3%
- inhibition of growth at 100 ppm (Athelia rolfsii [4]): 6%

Compound: CCc1ccc2c(c1)COP(=S)(OC)O2 (stereo not given)
- inhibition of growth at 1000 ppm (Pythium [1]): 96%
- inhibition of growth at 50 ppm (Pythium [5]): 64.4%
- inhibition of growth at 100 ppm (Pythium [2]): 91.1%
- inhibition of growth at 50 ppm (Athelia rolfsii [6]): 92.4%
- inhibition of growth at 10 ppm (Athelia rolfsii [7]): 24.6%
- inhibition of growth at 1000 ppm (Athelia rolfsii [3]): 100%
- inhibition of growth at 10 ppm (Pythium [8]): 1.9%
- inhibition of growth at 100 ppm (Athelia rolfsii [4]): 100%

Compound: CCc1ccc2c(c1)COP(=O)(Oc1ccccc1)O2 (stereo not given)
- inhibition of growth at 1000 ppm (Pythium [1]): 98.7%
- inhibition of growth at 50 ppm (Pythium [5]): 78.6%
- inhibition of growth at 100 ppm (Pythium [2]): 89.1%
- inhibition of growth at 50 ppm (Athelia rolfsii [6]): 57.6%
- inhibition of growth at 10 ppm (Athelia rolfsii [7]): 26.6%
- inhibition of growth at 1000 ppm (Athelia rolfsii [3]): 100%
- inhibition of growth at 10 ppm (Pythium [8]): 38.5%
- inhibition of growth at 100 ppm (Athelia rolfsii [4]): 100%

Compound: CCc1ccc2c(c1)COP(=S)(Oc1ccc(C)cc1C(C)C)O2 (stereo not given)
- inhibition of growth at 1000 ppm (Pythium [1]): 100%
- inhibition of growth at 100 ppm (Pythium [2]): 49.5%
- inhibition of growth at 1000 ppm (Athelia rolfsii [3]): 100%
- inhibition of growth at 100 ppm (Athelia rolfsii [4]): 88.6%

Compound: CCc1ccc2c(c1)COP(=S)(Oc1cc(C)ccc1C(C)C)O2 (stereo not given)
- inhibition of growth at 1000 ppm (Pythium [1]): 96.8%
- inhibition of growth at 100 ppm (Pythium [2]): 41.7%
- inhibition of growth at 1000 ppm (Athelia rolfsii [3]): 100%
- inhibition of growth at 100 ppm (Athelia rolfsii [4]): 30.4%

Compound: CCc1ccc2c(c1)COP(=S)(OCCc1ccccc1)O2 (stereo not given)
- inhibition of growth at 1000 ppm (Pythium [1]): 100%
- inhibition of growth at 100 ppm (Pythium [2]): 95.4%
- inhibition of growth at 1000 ppm (Athelia rolfsii [3]): 100%
- inhibition of growth at 100 ppm (Athelia rolfsii [4]): 57%

Compound: COP1(=S)OCc2cc(C(C)C)ccc2O1 (stereo not given)
- inhibition of growth at 1000 ppm (Pythium [1]): 82.6%
- inhibition of growth at 50 ppm (Pythium [5]): 50%
- inhibition of growth at 100 ppm (Pythium [2]): 71.1%
- inhibition of growth at 50 ppm (Athelia rolfsii [6]): 92.5%
- inhibition of growth at 10 ppm (Athelia rolfsii [7]): 62%
- inhibition of growth at 1000 ppm (Athelia rolfsii [3]): 100%
- inhibition of growth at 10 ppm (Pythium [8]): 0%
- inhibition of growth at 100 ppm (Athelia rolfsii [4]): 96.9%

Compound: Cc1ccc(OP2(=S)OCc3cc(C(C)C)ccc3O2)c(C(C)C)c1 (stereo not given)
- inhibition of growth at 1000 ppm (Pythium [1]): 85.9%
- inhibition of growth at 100 ppm (Pythium [2]): 26.8%
- inhibition of growth at 1000 ppm (Athelia rolfsii [3]): 71.3%
- inhibition of growth at 100 ppm (Athelia rolfsii [4]): 62.5%

Compound: Cc1ccc(C(C)C)c(OP2(=S)OCc3cc(C(C)C)ccc3O2)c1 (stereo not given)
- inhibition of growth at 1000 ppm (Pythium [1]): 85.9%
- inhibition of growth at 100 ppm (Pythium [2]): 33.8%
- inhibition of growth at 1000 ppm (Athelia rolfsii [3]): 84.6%
- inhibition of growth at 100 ppm (Athelia rolfsii [4]): 61.9%

Compound: COP1(=S)OCc2ccccc2O1 (stereo not given) [SALITHION]
- inhibition of growth at 1000 ppm (Pythium [1]): 100%
- inhibition of growth at 100 ppm (Pythium [2]): 74.8%
- inhibition of growth at 1000 ppm (Athelia rolfsii [3]): 100%
- inhibition of growth at 100 ppm (Athelia rolfsii [4]): 60.7%
